Laboratory results published in patent EP1931657B1, “NOVEL HIGH AFFINITY QUINOLINE-BASED KINASE LIGANDS” (Merck Sharp & Dohme Corp., priority 2005, dated 2007).

Target: CDK-2 (Homo sapiens, UniProt P24941)
Assay: CDK-2 inhibition, fluorescence polarization displacement assay
Protocol: Binding assays were performed in a 384 well Costar NBS coated plate. […] The concentration of BMS-Alexa Fluor647 was 50 nM. Serial dilutions of compounds were added to 12 wells. The final buffer concentration was 10 mM Hepes, pH 7.5, 150 mM NaCl, and 1 mM DTT. Samples were incubated at room temperature for 15 minutes and then read in an Analyst HT instrument using an excitation and emission wavelength of 580 and 680 nm, respectively.

With `COC[C@H](Cc1ccc(O)cc1)NC(=O)c1cc(-n2cccn2)c2cc(-c3cccc(Cn4cccn4)c3)ccc2n1` [Compound 213] the IC50 was > 40 µM.

In the case of `COC[C@H](Cc1ccc(O)cc1)NC(=O)c1cc(C(=O)OCCO)c2cc(/C=C/c3ccc(Cl)cc3)ccc2n1` [Compound 214], the IC50 is reported as > 40 µM.

In the case of `COC[C@H](Cc1ccc(O)cc1)NC(=O)c1cc(C(=O)OCC(O)CO)c2cc(/C=C/c3ccc(Cl)cc3)ccc2n1` (stereo partly shown) [Compound 215], the IC50 is reported as > 40 µM.

`CCOC(=O)c1cc(C(=O)N[C@H](COC)Cc2ccc(O)cc2)nc2ccc(/C=C/c3ccc(Cl)cc3)cc12` [Compound 217] was tested, and the IC50 was > 40 µM.

For `COC[C@H](Cc1ccc(O)cc1)NC(=O)c1cc(C(=O)OCCN(C)C)c2cc(/C=C/c3ccc(Cl)cc3)ccc2n1` [Compound 218], the IC50 was > 40 µM.

In the case of `COC[C@H](Cc1ccc(O)cc1)NC(=O)c1cc(C(=O)O)c2cc(C#CCCCCN3CCN(C)CC3)ccc2n1` [Compound 219], the IC50 is reported as > 40 µM.

In the case of `COC[C@H](Cc1ccc(O)cc1)NC(=O)c1cc(C(=O)O)c2cc(C#CCCCN3CCN(C)CC3)ccc2n1` [Compound 220], the IC50 is reported as > 40 µM.

In the case of `CC(C)(C)S(=O)(=O)Nc1cc(C(=O)N[C@H](CN)Cc2ccc(O)cc2)nc2ccc(C#Cc3ccccn3)cc12` [Compound 225], the IC50 is reported as > 40 µM.

In the case of `COC(=O)[C@H](Cc1ccc(O)cc1)NC(=O)c1cc(C(=O)O)c2cc(-c3cncnc3)ccc2n1` [Compound 226], the IC50 is reported as > 40 µM.

With `COC(=O)[C@H](Cc1ccc(O)cc1)NC(=O)c1cc(C(N)=O)c2cc(-c3cccs3)ccc2n1` [Compound 227] the IC50 was > 40 µM.

`COC(=O)[C@H](Cc1ccc(O)cc1)NC(=O)c1cc(C(=O)OCC(N)C(C)C)c2cc(-c3cccs3)ccc2n1` (stereo partly shown) [Compound 228] was tested, and the IC50 was > 40 µM.

With `COC(=O)c1cc(C(=O)N[C@@H](Cc2ccc(O)cc2)C(=O)OC)nc2ccc(-c3cccs3)cc12` [Compound 229] the IC50 was > 40 µM.

In the case of `COC(=O)[C@H](Cc1ccc(O)cc1)NC(=O)c1cc(C(=O)OCCO)c2cc(-c3cccs3)ccc2n1` [Compound 230], the IC50 is reported as > 40 µM.

`CCCCOC(=O)c1cc(C(=O)N[C@@H](Cc2ccc(O)cc2)C(=O)OC)nc2ccc(-c3cccs3)cc12` [Compound 231] was tested, and the IC50 was > 40 µM.

`COC(=O)[C@H](Cc1ccc(O)cc1)NC(=O)c1cc(C(=O)Nc2nnn[nH]2)c2cc(-c3cccs3)ccc2n1` [Compound 234] was tested, and the IC50 was > 40 µM.

For `COC(=O)C(Cc1ccc(O)cc1)NC(=O)c1cc(C(=O)NC(C)C)c2cc(-c3cccs3)ccc2n1` (stereo not shown) [Compound 235], the IC50 was > 40 µM.
